What was measured:
[1] = test system: HCT-116; test: Antiproliferative activity against human HCT-116 cells harboring wild type […] assessed as reduction in cell growth incubated for 4 days by Cell Titer-Glo assay; assay type: functional, cell-based; details: HCT-116, 96 h
[2] = biological target: T1, S-adenosylmethionine synthase isoform type-2 (Homo sapiens, UniProt P31153); test: Inhibition of recombinant human MAT2A expressed in baculovirus infected Sf9 cells using L-methionine as substrate incubated for 60 mins followed by substrate addition and measured after 60 mins by S-adenosyl methionine assay kit method
[3] = biological target: T1, S-adenosylmethionine synthase isoform type-2; test: Inhibition of MAT2A in human HCT-116 cells assessed as reduction in SAM incubated for 72 hrs by LC-MS/MS analysis; assay type: cell-based
[4] = test system: HCT-116; test: Antiproliferative activity against isogenic pair of human HCT-116 cells harboring […] del mutant assessed as reduction in cell growth incubated for 4 days by Cell Titer-Glo assay; assay type: cell-based; details: HCT-116, 96 h

T1 sequence (P31153 whole entry, canonical isoform): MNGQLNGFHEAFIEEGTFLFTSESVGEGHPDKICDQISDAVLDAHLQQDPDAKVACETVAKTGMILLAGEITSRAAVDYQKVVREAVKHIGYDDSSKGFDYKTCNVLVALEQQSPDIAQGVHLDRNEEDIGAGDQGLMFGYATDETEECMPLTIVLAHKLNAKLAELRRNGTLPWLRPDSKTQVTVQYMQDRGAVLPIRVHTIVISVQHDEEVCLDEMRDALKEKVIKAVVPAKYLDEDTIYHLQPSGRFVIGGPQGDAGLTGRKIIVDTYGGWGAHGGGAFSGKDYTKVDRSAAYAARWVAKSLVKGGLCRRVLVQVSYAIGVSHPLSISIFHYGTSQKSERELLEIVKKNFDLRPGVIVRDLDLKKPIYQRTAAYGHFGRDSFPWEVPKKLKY

SMILES	IC50 [1] [nM]	IC50 [2] [nM]	IC50 [3] [nM]	IC50 [4] [nM]
CCOc1ccc2nn(-c3ccc4nn(C)cc4c3)c(=O)c(-c3ccc(OC)cc3)c2n1	≥ 100	< 100	< 100	< 100
Cn1cc2cc(-n3nc4ccc(OCC(F)(F)F)nc4c(-c4ccc(Cl)cc4)c3=O)ccc2n1	≥ 100	< 100	< 100	< 100
Cn1cc2cc(-n3nc4ccc(SCC(F)(F)F)nc4c(-c4ccc(OC(F)F)cc4)c3=O)ccc2n1	≥ 100	< 100	< 100	< 100
COc1ccc(-c2c(=O)n(-c3ccc4nn(C)cc4c3)nc3ccc(OCC(F)F)nc23)cn1	≥ 100	< 100	< 100	< 100
Cn1cc2cc(-n3nc4ccc(OCCC(F)(F)F)nc4c(-c4ccc(OC(F)F)cc4)c3=O)ccc2n1	≥ 1000	< 100	≥ 100	≥ 100
Cn1cc2cc(-n3nc4ccc(OCC(F)(F)F)nc4c(-c4ccc(OC(F)F)cc4)c3=O)ccc2n1	≥ 100	< 100	< 100	< 100

More lines, now with the values ahead:

IC50 [1] [nM]	IC50 [2] [nM]	IC50 [3] [nM]	IC50 [4] [nM]	SMILES
≥ 100	< 100	< 100	< 100	Cn1cc2cc(-n3nc4ccc(OCC(F)F)nc4c(-c4ccc(OC(F)F)cc4)c3=O)ccc2n1
≥ 100	< 100	< 100	< 100	[2H]C([2H])([2H])Oc1c2cc(-n3nc4ccc(OCC(F)F)nc4c(-c4ccc(OC(F)F)cc4)c3=O)ccc2nn1C
≥ 100	< 100	< 100	< 100	O=c1c(-c2ccc(OC(F)F)cc2)c2nc(OCC(F)F)ccc2nn1-c1ccc2c(c1)CCO2
< 100	< 100	< 100	< 100	O=c1c(-c2ccc(OC(F)F)cc2)c2nc(OCC(F)F)ccc2nn1-c1ccc2ncsc2c1

From ChEMBL document CHEMBL4715922, “Methionine Adenosyltransferase Inhibitors for the Treatment of Cancer” (ACS Med Chem Lett, 2021)
